Experiments:
[1] = Stability constants of Mn(II) complexes by pH-potentiometry, pMn and species distribution; assay type: physicochemical; conditions: species distribution, [Mn(II)] = [L] = 1.5 mM
Method: Metal stock solutions were prepared from the highest analytical grade chemicals, and their concentration was determined by complexometric titration with standardized Na2H2EDTA, using xylenol orange indicator in the presence of urotropine buffer (ZnCl2 and MnCl2); Eriochrome black T indicator in the presence of ammonium acetate buffer (CaCl2) or murexide indicator in ammonium solution (CuCl2). The concentration of the ligand stock solutions was determined by pH-potentiometric titrations (the difference between two consecutive inflection points of the ligand titration curve corresponds to two (L2) or one (L3) ligand equivalents). To determine the protonation constants of the ligand and stability constants of the metal complexes with selected divalent metal ions, pH-potentiometric titrations were carried out with 0.1 M NaOH at 2 mM ligand concentration, in the absence (for ligand protonation constants) or in the presence of one equivalent of metal ion (for stability constants). During the titration, the waiting time was 2 min between successive points (V0 = 5 mL). The temperature (25.0 ± 0.1 °C) was controlled by a circulating water bath. The ionic strength was set to I = 0.15 M NaCl. All titrations were performed under a nitrogen atmosphere to avoid the effect of CO2. Titrations were carried out in the pH range from 1.8 (L3) or 2.0 (L2) (after the addition of 1 M HCl solution to the starting ligand solution in the titration cell) to pH 11 (or until precipitation of the metal hydroxide). All pH-potentiometric titrations were performed using a 785 DMP Titrino titration workstation with a combined electrode (Metrohm). The p[H] (p[H] = −log[H+], concentration in molarity) was measured in each titration with a combined pH glass electrode (Metrohm) filled with 3 M KCl. The electrode was calibrated in hydrogen ion concentration by titration of HCl with KOH in 0.1 M electrolyte solution.[37] A plot of potential versus p[H] allows determination of the electrode standard potential (E°) and the slope factor (f).
The protonation constants of the ligand (log Ki^H) are defined as follows [drawing 1] where i = 1, 2, ··· and [Hi–1L] and [H^+] are the equilibrium concentrations of the ligand (i = 1), its protonated forms (i = 2, ···), and the hydrogen ion. The stability (KML) and the protonation (KMHiL) constants for the metal complexes are defined as follows [drawing 2] [drawing 3] For the calculations of the equilibrium constants, the HYPERQUAD program was used.[38] The number of fitted data pairs was between 190 and 240. The ionic product of water at 25 °C and 0.1 M ionic strength is pKw = 13.77.[39] Fixed values were used for pKw, ligand acidity constants, and total concentrations of metal, ligand, and acid. All values and errors (one standard deviation) reported are at least the average of two independent experiments.
To obtain further information about the impact of a given pendant arm, it is interesting to calculate pMn values (pMn = −log[Mn(II)]free at pH 7.4, cMn = clig= 10^–5 M) which provide a more direct comparison of MnL stabilities, independently of differences in protonation constants (Table 4). […] Nevertheless, the too large, 15-membered macrocyclic cavity combined with a lower number of pendant arms provide ca. 2 orders of magnitude lower stability for Mn(II) complexation as compared to the 12-membered pyclen derivatives (Table 4).

[2] = Cyclic voltammetry of Mn(II) complexes in aqueous solution; assay type: physicochemical; conditions: aqueous 0.15 M KCl; for ΔE (peak separation): 100 mV s^–1; for Eox (oxidation peak) / Ered (reduction peak): 100 mV s^–1 scan rate; for Eox (oxidation peak) / Ered (reduction peak) / E1/2: vs Ag/AgCl
Method: All solvents (VWR International, Penta) and chemicals were purchased from commercial sources (Acros Organics, Merck) and used as received. 2-(Chloromethyl)pyridine hydrochloride and 2-(chloromethyl)benzimidazole were prepared according to the previously described procedures.[31],[32] The parent ligand 15-pyN3O2 was synthesized as previously described in the literature.[28],[33] Mass spectra were collected using an LCQ Fleet mass spectrometer (Thermo Scientific, Waltham, MA) equipped with an electrospray ion source and a three-dimensional (3D) ion-trap detector in the positive/negative mode (see SI, Figures S1 and S2). ^1H and ^13C NMR spectra were obtained using a 400-MR NMR spectrometer (Varian, Palo, Alto, CA) at 25 °C. The multiplicity of the signals is indicated as follows: s, singlet; d, doublet; t, triplet; m, multiplet; and bs, broad singlet. Deuterated solvent chloroform-d (99.9% of D) was purchased from Sigma-Aldrich and used as received. The atom numbering schemes used for the interpretation of NMR data are shown in Scheme 2. The carbon and hydrogen atoms were assigned according to the spectra obtained from the two-dimensional correlation experiments ^1H–^1H gs-COSY, ^1H–^13C gs-HMQC, and ^1H–^13C gs-HMBC (see SI, Figures S3–S10). Cyclic voltammetry was performed on a CHI600C electrochemical analyzer (CH Instruments, Inc., Austin, TX). IR spectra were measured on a Jasco FT/IR-4700 spectrometer (Jasco, Easton, MD) using the ATR technique on a diamond plate in the spectral range 4000–400 cm^–1 (see SI Figure S11). A conventional electrochemical three-electrode-type cell with a glassy carbon working electrode, a platinum wire auxiliary electrode, and either Ag/Ag^+ reference electrode (0.01 M AgNO3 in 0.1 M tetrabutylammonium perchlorate (TBAP) in CH3CN) or Ag/AgCl reference electrode filled with 3 M KCl solution was used during the measurements with the scan rate of 100 mV s^–1. The measurements were performed in an argon atmosphere either in 0.1 M TBAP solution in CH3CN or in 0.15 M aqueous solution of KCl as a supporting electrolyte with a scan rate of 100 mV s^–1 and at 1.5 mM concentration of the complexes. The internal ferrocene/ferrocenium standard (E1/2 = 0.459 V vs Ag/Ag^+ electrode, ΔE = 77 mV) was employed for measurements in CH3CN.
Thus, we carried out CV experiments on an aqueous solution of the Mn(II) complexes in 0.15 M KCl. […] The cyclic voltammogram of MnL3 is similar, showing an oxidation peak at Eox = +1004 mV and a reduction peak at Ered = 782 mV (E1/2 = 893 mV vs Ag/AgCl, ΔE = 222 mV) (Figure S23). The large separation between the oxidation and reduction peaks (ΔE) is characteristic of a quasi-reversible system. The irreversibility of the Mn(II)/Mn(III) redox process is quite common due to the lack of ligand-field stabilization for the high-spin d^5 configuration of Mn(II), with a consequent large inner-sphere contribution to electron transfer.[57] Even larger separation between the oxidation and reduction peaks was observed when the complexes were measured in acetonitrile (Figures S24 and S25 in SI).

pH above which full complex formation is achieved [1]	ΔE (peak separation) [2] [mV]	Eox (oxidation peak) [2]	Ered (reduction peak) [2]	E1/2 [2] [mV]	Compound
> 6	144	+994 mV	+850 mV	922	O.[Mn+2].c1ccc(CN2CCOCCOCCNCc3cccc(n3)C2)nc1 [MnL2]
> 6	222	+1004 mV	782 mV	893	O.[Mn+2].c1cc2nc(c1)CN(Cc1nc3ccccc3[nH]1)CCOCCOCCNC2 [MnL3]

From PMC12042267, “Expanding the Family of Monosubstituted 15-Membered Pyridine-Based Macrocyclic Ligands for Mn(II) Complexation in the Context of MRI” (Inorganic Chemistry, 2025)
